Test results: patent publication US5876694A, “Azavesamicols” (priority 1997, dated 1999)
Where two headings read alike, the source gives them in different places.

Assay: Tissue distribution of radiotracer in rats
Type: in vivo, male Wistar rats
Settings: for tissue uptake at 5 min / tissue uptake at 0.5 h / tissue uptake at 1 h / tissue uptake at 3 h: rat
Procedure: Tissue Distribution Experiments
Four groups of male Wistar rats (n=4) weighing 200-350 g were used in these experiments. Each animal received, while under ether anesthesia, an intravenous injection of the radiotracer (3-5 uCi) dissolved in 0.1 mL of 50% aqueous ethanol. At 5, 30, 60 and 180 min post-injection, blood was collected from the anesthetized animal by cardiac puncture, and the animal was immediately sacrificed by cardiectomy. The organs and tissues of interest were harvested, transferred to preweighed tubes and counted in a Beckman gamma counter. The tubes were subsequently reweighed to give the weight of the corresponding tissues. Preweighed tubes containing 1 mL samples of a 1:100 dilution of the injected dose were also counted and used as reference for calculating the tissue accumulation of radioactivity. The accumulation of radiotracer was expressed as a percentage of injected dose per gram of tissue.
The animals were injected intravenously with 4.9 uCi of the radiotracer i
0.1 ml of 50% aq. EtOH.
The animals were injected with 3.7 uCi of the radiotracer in 0.1 ml of 50

O[C@@H]1CCN(Cc2cccc([125I])c2)C[C@H]1N1CCC(c2ccccc2)CC1 (single isomer, unassigned) [(-)-[^125 I]12h, (+)- and (-)-4-hydroxy-1-(3-[I^125]iodobenzyl)-3-(4-phenyl-piperidinyl)piperidine]
Ratio brain/blood (5 min, iv): 4.27 | Ratio heart/blood (5 min, iv): 6.07 | radioactivity in brain (5 min post-injection, iv): 1.67 % of the injected dose | Ratio brain/blood (30 min, iv): 9.06 | Ratio heart/blood (30 min, iv): 6.87 | Ratio brain/blood (60 min, iv): 8.51 | Ratio heart/blood (60 min, iv): 5.97 | Ratio brain/blood (180 min, iv): 9.87 | Ratio heart/blood (180 min, iv): 5.32 | brain accumulation and retention (in words) (compared with the (+)-isomer): higher accumulation and longer retention in the brain | tissue uptake at 5 min (blood, 5 min, iv, read-out: Tissue distribution, blood): 0.22 %ID/g | tissue uptake at 0.5 h (blood, 30 min, iv, read-out: Tissue distribution, blood): 0.11 %ID/g | tissue uptake at 1 h (blood, 60 min, iv, read-out: Tissue distribution, blood): 0.1 %ID/g | tissue uptake at 3 h (blood, 180 min, iv, read-out: Tissue distribution, blood): 0.1 %ID/g | tissue uptake at 5 min (brain, 5 min, iv, read-out: Tissue distribution, brain): 0.92 %ID/g | tissue uptake at 0.5 h (brain, 30 min, iv, read-out: Tissue distribution, brain): 0.99 %ID/g | tissue uptake at 1 h (brain, 60 min, iv, read-out: Tissue distribution, brain): 0.83 %ID/g | tissue uptake at 3 h (brain, 180 min, iv, read-out: Tissue distribution, brain): 0.92 %ID/g | tissue uptake at 5 min (gonads, 5 min, iv, read-out: Tissue distribution, gonads): 0.19 %ID/g | tissue uptake at 0.5 h (gonads, 30 min, iv, read-out: Tissue distribution, gonads): 0.23 %ID/g | tissue uptake at 1 h (gonads, 60 min, iv, read-out: Tissue distribution, gonads): 0.17 %ID/g | tissue uptake at 3 h (gonads, 180 min, iv, read-out: Tissue distribution, gonads): 0.2 %ID/g | tissue uptake at 5 min (heart, 5 min, iv, read-out: Tissue distribution, heart): 1.32 %ID/g | tissue uptake at 0.5 h (heart, 30 min, iv, read-out: Tissue distribution, heart): 0.75 %ID/g | tissue uptake at 1 h (heart, 60 min, iv, read-out: Tissue distribution, heart): 0.58 %ID/g | tissue uptake at 3 h (heart, 180 min, iv, read-out: Tissue distribution, heart): 0.5 %ID/g | tissue uptake at 5 min (kidney, 5 min, iv, read-out: Tissue distribution, kidney): 3.71 %ID/g | tissue uptake at 0.5 h (kidney, 30 min, iv, read-out: Tissue distribution, kidney): 3.53 %ID/g | tissue uptake at 1 h (kidney, 60 min, iv, read-out: Tissue distribution, kidney): 3.13 %ID/g | tissue uptake at 3 h (kidney, 180 min, iv, read-out: Tissue distribution, kidney): 3.27 %ID/g | tissue uptake at 5 min (liver, 5 min, iv, read-out: Tissue distribution, liver): 2.07 %ID/g | tissue uptake at 0.5 h (liver, 30 min, iv, read-out: Tissue distribution, liver): 2.35 %ID/g | tissue uptake at 1 h (liver, 60 min, iv, read-out: Tissue distribution, liver): 2.63 %ID/g | tissue uptake at 3 h (liver, 180 min, iv, read-out: Tissue distribution, liver): 2.23 %ID/g | tissue uptake at 5 min (lung, 5 min, iv, read-out: Tissue distribution, lung): 5.9 %ID/g | tissue uptake at 0.5 h (lung, 30 min, iv, read-out: Tissue distribution, lung): 3.21 %ID/g | tissue uptake at 1 h (lung, 60 min, iv, read-out: Tissue distribution, lung): 2.41 %ID/g | tissue uptake at 3 h (lung, 180 min, iv, read-out: Tissue distribution, lung): 2.01 %ID/g | tissue uptake at 5 min (muscle, 5 min, iv, read-out: Tissue distribution, muscle): 0.46 %ID/g | tissue uptake at 0.5 h (muscle, 30 min, iv, read-out: Tissue distribution, muscle): 0.3 %ID/g | tissue uptake at 1 h (muscle, 60 min, iv, read-out: Tissue distribution, muscle): 0.28 %ID/g | tissue uptake at 3 h (muscle, 180 min, iv, read-out: Tissue distribution, muscle): 0.27 %ID/g | tissue uptake at 5 min (spleen, 5 min, iv, read-out: Tissue distribution, spleen): 1.04 %ID/g | tissue uptake at 0.5 h (spleen, 30 min, iv, read-out: Tissue distribution, spleen): 1.24 %ID/g | tissue uptake at 1 h (spleen, 60 min, iv, read-out: Tissue distribution, spleen): 1.17 %ID/g | tissue uptake at 3 h (spleen, 180 min, iv, read-out: Tissue distribution, spleen): 1.28 %ID/g | tissue uptake at 5 min (thyroid, 5 min, iv, read-out: Tissue distribution, thyroid): 2.67 %ID/g | tissue uptake at 0.5 h (thyroid, 30 min, iv, read-out: Tissue distribution, thyroid): 3.15 %ID/g | tissue uptake at 1 h (thyroid, 60 min, iv, read-out: Tissue distribution, thyroid): 5.87 %ID/g | tissue uptake at 3 h (thyroid, 180 min, iv, read-out: Tissue distribution, thyroid): 11.6 %ID/g | brain level over time (in words) (throughout the study (5 to 180 min)): remained essentially unchanged
